Calls of active or inactive are those of the source. How the calls were made is not given here.
Key:
Test in all cases: microbial growth inhibition plus red cell haemolysis – Idler compounds, first plate, PMBN-permeabilized strains, profiling panel (AID 2061108)
Design in all cases: haemolysis: dose or concentration left out as unconfirmed
[1] = test system: M. avium growth inhibition, 10 uM; settings: M. avium growth inhibition, 10 µM
[2] = test system: S. aureus ATCC 9144 growth inhibition, 100 uM; settings: S. aureus ATCC 9144 growth inhibition; at 100 µM; stronger effect = higher value
[3] = test system: red blood cell haemolysis; settings: stronger effect = higher value; dose or concentration not given here
[4] = test system: C. albicans NCPF 3281 growth inhibition, 100 uM; settings: S. aureus ATCC 9144 growth inhibition; measured here: C. albicans NCPF 3281; at 100 µM; stronger effect = higher value
[5] = test system: A. baumannii ATCC 17978 + PMBN growth inhibition, 100 uM; settings: A. baumannii plus PMBN growth inhibition, 100 µM; stronger effect = higher value
[6] = test system: E. coli NCTC 12923 + PMBN growth inhibition, 100 uM; settings: S. aureus ATCC 9144 growth inhibition; measured here: E. coli plus PMBN; at 100 µM; stronger effect = higher value
[7] = test system: M. abscessus growth inhibition, 10 uM; settings: S. aureus ATCC 9144 growth inhibition; measured here: M. abscessus; at 10 µM
[8] = test system: A. baumannii ATCC 17978 growth inhibition, 100 uM; settings: S. aureus ATCC 9144 growth inhibition; measured here: A. baumannii ATCC 17978; at 100 µM; stronger effect = higher value
[9] = test system: E. coli NCTC 12923 growth inhibition, 100 uM; settings: E. coli NCTC 12923 growth inhibition, 100 µM; stronger effect = higher value

## CCCOc1cc(S(=O)(=O)n2cccn2)ccc1Br
[1]
  inhibition: -1.53%
[2]
  inhibition: -33.2% (inactive)
[3]
  haemolysis: 0.858%
[4]
  inhibition: -62.6%
[5]
  inhibition: 18.4%
[6]
  inhibition: -8.29%
[7]
  inhibition: -0.42%
[8]
  inhibition: -7.35%
[9]
  inhibition: -38.1%

## N#Cc1c(N2C[C@@H](CC(N)=O)[C@H](O)C2)nc2ccccc2c1C(F)(F)F
[1]
  inhibition: 0.858%
[2]
  inhibition: 9.67% (inactive)
[3]
  haemolysis: 0.173%
[4]
  inhibition: -24.4%
[5]
  inhibition: 28.3%
[6]
  inhibition: 11.6%
[7]
  inhibition: -0.687%
[8]
  inhibition: -4.88%
[9]
  inhibition: 0.811%

## NC(=O)CSc1nnc(COc2ccccc2)n1-c1ccccc1
[1]
  inhibition: 0.364%
[2]
  inhibition: 15.3% (inactive)
[3]
  haemolysis: 0.123%
[4]
  inhibition: -39.3%
[5]
  inhibition: 23.4%
[6]
  inhibition: 2.8%
[7]
  inhibition: 0.484%
[8]
  inhibition: 0.843%
[9]
  inhibition: -3.24%

## O=C(N/N=C/C1CCOCC1)c1ccncc1
[1]
  inhibition: 4.75%
[2]
  inhibition: 16% (inactive)
[3]
  haemolysis: 1.63%
[4]
  inhibition: -26.5%
[5]
  inhibition: 13.2%
[6]
  inhibition: 1.11%
[7]
  inhibition: -2.72%
[8]
  inhibition: 0.357%
[9]
  inhibition: -1.62%

## COc1cc2nc(NCCCN(C)C)nc(N3CC(N(C)C)C3)c2cc1OC
[1]
  inhibition: 5.58%
[2]
  inhibition: 37.5% (inactive)
[3]
  haemolysis: 0.15%
[4]
  inhibition: -118%
[5]
  inhibition: 29.9%
[6]
  inhibition: 2.07%
[7]
  inhibition: 1.59%
[8]
  inhibition: 17.3%
[9]
  inhibition: 11.5%

## Cc1ccn2c(=O)nc(SCC(=O)OCc3ccccc3)nc2c1
[1]
  inhibition: -0.191%
[2]
  inhibition: 7% (inactive)
[3]
  haemolysis: -0.0134%
[4]
  inhibition: -102%
[5]
  inhibition: 5.22%
[6]
  inhibition: -29.4%
[7]
  inhibition: -0.803%
[8]
  inhibition: 0.238%
[9]
  inhibition: -34.5%

## N#Cc1c(NC[C@H]2CCCN2)nc2ccccc2c1C(F)(F)F
[1]
  inhibition: -0.31%
[2]
  inhibition: 99.7%
[3]
  haemolysis: 0.41%
[4]
  inhibition: -78.9%
[5]
  inhibition: 53.6%
[6]
  inhibition: 17.7%
[7]
  inhibition: -1.13%
[8]
  inhibition: 9.76%
[9]
  inhibition: 12.8%

## CC(C)C(N)C(=O)NS(=O)(=O)c1cccc(-c2cc3ncnc(N)c3s2)c1 (centres undefined)
[1]
  inhibition: 16.2%
[2]
  inhibition: -22.3% (inactive)
[3]
  haemolysis: 0.218%
[4]
  inhibition: -123%
[5]
  inhibition: -10.9%
[6]
  inhibition: -17.2%
[7]
  inhibition: -0.361%
[8]
  inhibition: -15.1%
[9]
  inhibition: -28.5%

## O=S(=O)(Nc1ccc(Oc2ccccc2)cc1)c1cccc(C(F)(F)F)c1
[1]
  inhibition: 0.528%
[2]
  inhibition: 81.9%
[3]
  haemolysis: 1.23%
[4]
  inhibition: 25.3%
[5]
  inhibition: 67.9%
[6]
  inhibition: 90%
[7]
  inhibition: -0.452%
[8]
  inhibition: 59.2%
[9]
  inhibition: -5.41%

## C=CC(=O)N1CCC[C@H](CC(=O)O)C1
[1]
  inhibition: 0.225%
[2]
  inhibition: 14.4% (inactive)
[3]
  haemolysis: -0.0261%
[4]
  inhibition: -64.4%
[5]
  inhibition: 22.4%
[6]
  inhibition: 5.85%
[7]
  inhibition: -0.00311%
[8]
  inhibition: 0%
[9]
  inhibition: -6.76%

## Cc1cccc(C)c1OCC(O)CSc1ccccn1 (centres undefined)
[1]
  inhibition: -0.789%
[2]
  inhibition: -7.89% (inactive)
[3]
  haemolysis: 0.214%
[4]
  inhibition: -34.4%
[5]
  inhibition: 51.9%
[6]
  inhibition: 59.6%
[7]
  inhibition: -0.104%
[8]
  inhibition: 11.9%
[9]
  inhibition: -44.2%
